Values after ≈ are worked out from the molar mass of the structure shown. Like-named read-outs stand apart in the source and are kept apart here.
Key:
[1] = Solubility study in FeSSIF (HPLC after 30 min stirring and centrifugation); format: physicochemical
Method: For the solubility study, a quantity of the solid dispersion equivalent to 10.0 mg of Aprepitant was dissolved in a 100ml volumetric flask with dissolution medium of fed state simulated intestinal fluid (FeSSIF) to a concentration of 0.1mg/ml. The solution was magnetically stirred for 30min and before injected in the HPLC it was centrifuged at 4000rpm for 5min. Finally the drug concentration was equated to the drug solubility. Table 1: Solubility of solid dispersion prepared according to example 1
Table 8: Solubilities of solid dispersions prepared by melt mixing

[2] = cited from earlier work
[3] = Dissolution, USP type II apparatus (paddles), 50 rpm, FeSSIF; format: physicochemical
Method: The rate and extent of drug dissolution was studied using a USP type II apparatus (paddles) at 50 rpm. The dissolution medium was a FeSSIF with pH 5.0. Table 2: Dissolution results of amorphous solid dispersions for different ratios of API to polymer compared with that of Aprepitant alone. The dissolution rate of the solid dispersions that present the best solubility was studied in USP II apparatus, 50rpm, FeSSIF medium.

## C[C@@H](O[C@H]1OCCN(Cc2nc(=O)[nH][nH]2)[C@H]1c1ccc(F)cc1)c1cc(C(F)(F)F)cc(C(F)(F)F)c1 [Aprepitant]
[1]; fed state simulated intestinal fluid (FeSSIF), fessif, thermodynamic from solid, solid dispersions prepared by spray drying, nominal concentration 0.1mg/ml, stirred 30min
  solubility at 30 min: 0.05 mg/mL (≈ 93.6 µM)
[1]; solid dispersions prepared by melt mixing at the stated temperature
  Solubility in FeSSIF: 0.050 mg/mL (≈ 93.6 µM)
[2]; in acetonitrile
  solubility: slightly soluble
[2]; in ethanol
  solubility: sparingly soluble
[2]; in isopropyl acetate
  solubility: sparingly soluble
[2]; in water
  solubility: practically insoluble
[3]; 15 min, FeSSIF medium, melt mixed solid dispersions
  % release: 17,37%
[3]; 15 min, FeSSIF pH 5.0, spray dried solid dispersions
  % release: 17,37%
[3]; 30 min, FeSSIF medium, melt mixed solid dispersions
  % release: 38,74%
[3]; 30 min, FeSSIF pH 5.0, spray dried solid dispersions
  % release: 38,74%
[3]; 45 min, FeSSIF medium, melt mixed solid dispersions
  % release: 45,34%
[3]; 45 min, FeSSIF pH 5.0, spray dried solid dispersions
  % release: 45,34%
[3]; 60 min, FeSSIF medium, melt mixed solid dispersions
  % release: 47,38%
[3]; 60 min, FeSSIF pH 5.0, spray dried solid dispersions
  % release: 47,38%

— patent publication EP3250188B1, “PHARMACEUTICAL COMPOSITION COMPRISING APREPITANT AND METHOD FOR THE PREPARATION THEREOF” (Pharmathen S.A., priority 2015, dated 2016)
